Experimental data published in paper PMC4501499 (MedChemComm, 2015).

How the values were obtained:
rat UT-A1 = biological target: T1, rat UT-A1 (Rattus norvegicus, UniProt Q62668); assay: UT-A1 inhibition assay; format: cell-based; conditions: for UT inhibition activity (in words): text summary of urea transport inhibition (UT-A1 / UT-B, Table 1)
T1 sequence (Q62668 1-929): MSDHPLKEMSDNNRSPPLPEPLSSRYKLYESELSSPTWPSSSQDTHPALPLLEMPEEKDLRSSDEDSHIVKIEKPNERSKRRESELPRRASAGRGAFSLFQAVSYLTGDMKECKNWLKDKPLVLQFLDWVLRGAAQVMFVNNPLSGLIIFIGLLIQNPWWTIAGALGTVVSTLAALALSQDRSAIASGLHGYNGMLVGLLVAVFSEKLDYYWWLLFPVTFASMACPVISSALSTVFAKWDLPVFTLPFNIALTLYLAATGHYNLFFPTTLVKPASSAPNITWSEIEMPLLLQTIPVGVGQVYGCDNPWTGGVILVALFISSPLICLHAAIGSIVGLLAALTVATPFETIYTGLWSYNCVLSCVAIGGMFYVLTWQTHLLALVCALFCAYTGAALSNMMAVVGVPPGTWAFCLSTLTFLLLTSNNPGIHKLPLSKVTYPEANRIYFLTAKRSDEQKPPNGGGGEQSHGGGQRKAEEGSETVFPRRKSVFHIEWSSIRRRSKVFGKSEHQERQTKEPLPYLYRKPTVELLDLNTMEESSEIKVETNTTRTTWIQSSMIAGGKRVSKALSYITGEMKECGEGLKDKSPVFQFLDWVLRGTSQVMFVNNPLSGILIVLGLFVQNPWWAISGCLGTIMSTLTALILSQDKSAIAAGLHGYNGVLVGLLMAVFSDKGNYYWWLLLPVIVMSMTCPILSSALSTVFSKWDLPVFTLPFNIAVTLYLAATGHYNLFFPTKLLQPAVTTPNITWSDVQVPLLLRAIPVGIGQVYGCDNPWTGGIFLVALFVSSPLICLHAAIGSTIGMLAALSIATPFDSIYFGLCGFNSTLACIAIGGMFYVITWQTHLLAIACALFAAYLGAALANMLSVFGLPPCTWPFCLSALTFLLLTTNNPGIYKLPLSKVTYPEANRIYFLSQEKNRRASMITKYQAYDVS

UT-B = biological target: T2, UT-B (Rattus norvegicus, UniProt P97689); assay: UT-B inhibition assay; format: cell-based; conditions: concentration-inhibition fit
T2 sequence (P97689 1-384): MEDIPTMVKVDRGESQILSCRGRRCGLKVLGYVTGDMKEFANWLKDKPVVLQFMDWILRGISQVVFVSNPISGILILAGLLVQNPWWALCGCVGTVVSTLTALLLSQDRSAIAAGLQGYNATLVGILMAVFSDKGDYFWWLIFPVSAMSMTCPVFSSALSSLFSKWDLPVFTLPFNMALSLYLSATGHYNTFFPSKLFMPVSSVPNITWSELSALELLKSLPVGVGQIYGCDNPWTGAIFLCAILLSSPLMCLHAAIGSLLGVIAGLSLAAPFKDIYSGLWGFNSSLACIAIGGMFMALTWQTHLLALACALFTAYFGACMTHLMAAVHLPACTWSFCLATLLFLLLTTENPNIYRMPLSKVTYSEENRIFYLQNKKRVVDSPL

[1] = in vitro microsomal stability with NADPH, LC/MS; conditions: rat liver microsomes

| SMILES | [M+H-16] metabolite by LC/MS [1] | UT inhibition activity (in words) (rat UT-A1) | also measured |
| --- | --- | --- | --- |
| CC(=O)Nc1ccc2c(c1)C(=O)c1cc(NC(C)=O)ccc1-2 [compound 3, 2,7-bisacetamido fluoren-9-one] | detected |  | extent of UT-A1 inhibition at higher concentrations (rat UT-A1; higher concentrations): complete inhibition; reversibility of UT-A1 inhibition (rat UT-A1; incubation near IC50, then washing with PBS): complete reversibility; time to complete inhibition of UT-A1 (rat UT-A1; inhibition kinetics): ≤ 40 s; Hill coefficient, UT-A1 (rat UT-A1; rat UT-A1, concentration-inhibition fit): 0.9; inhibition mechanism (urea competition) (rat UT-A1; urea 80 to 1,600 mM, apparent IC50 independent of urea concentration): non-competitive; Hill coefficient, UT-B (UT-B): 1.1 |
| CC(=O)Nc1ccc2c(c1)C(=NO)c1cc(NC(C)=O)ccc1-2 [compound 17] | not detected |  |  |
| CC(=O)Nc1cccc(C(=O)c2cccc(NC(C)=O)c2)c1 [compound 22] | not detected |  |  |

Second part, led by results:

| [M+H-16] metabolite by LC/MS [1] | UT inhibition activity (in words) (rat UT-A1) | SMILES | also measured |
| --- | --- | --- | --- |
|  | much less active | O=C1c2cc(NC(=O)C(F)(F)F)ccc2-c2ccc(NC(=O)C(F)(F)F)cc21 [compound 7] |  |
|  | strong inhibition | CS(=O)(=O)Nc1ccc2c(c1)C(=O)c1cc(NS(C)(=O)=O)ccc1-2 [compound 9] |  |
|  | low activity | O=C(CO)Nc1ccc2c(c1)C(=O)c1cc(NC(=O)CO)ccc1-2 [compound 12] |  |
|  | inactive | CS(=O)(=O)Nc1cccc(C(=O)c2cccc(NS(C)(=O)=O)c2)c1 [compound 24, bismethanesulfonamidobenzophenone] |  |
